In patent US9872873B2, “Process for preparing stable pharmaceutical compositions of compounds susceptible to hydrolysis” (Fresenius Kabi Oncology Limited, priority 2012, dated 2018):

Legend:
[1] = Stability profile of Bendamustine Hydrochloride pre-lyophilized bulk solution in water (5 mg/mL) at 5 ± 3° C.; format: physicochemical
[2] = Solution stability of Bendamustine Hydrochloride bulk solution in Water:Acetonitrile 80:20% v/v at −5 ± 2° C.; format: physicochemical
Procedure: In another aspect of the invention the fabrication temperature was controlled at −5±3° C., −5±2° C., −5±1° C. preferably −5±2° C. using Water and Acetonitrile ratio in between 95:5 to 70:30 preferably 80:20 (% v/v) respectively. The hold time data of Azacitidine, Decitabine and Bendamustine obtained in solvent mixture of Water and Acetonitrile at a ratio of 80:20 (% v/v), when fabricated at a temperature range of −5±2° C. is presented in Table VIII, IX, X respectively.

Cl.Cn1c(CCCC(=O)O)nc2cc(N(CCCl)CCCl)ccc21 [Bendamustine Hydrochloride]
Bendamustine Dimer (RRT 1.23) ([1]; 4 hr): 0.06% | Bendamustine Ethyl Ester (BD 5) (RRT 1.38) ([1]; 4 hr): 0.01% | H-unk (Highest Unknown Impurity) ([1]; 4 hr): 0.01% | Monohydroxy Bendamustine (RRT 0.47) ([1]; 4 hr): 0.58% | Total Related Substances ([1]; 4 hr): 0.69% | Bendamustine Dimer (RRT 1.23) ([1]; 8 hr): 0.10% | Bendamustine Ethyl Ester (BD 5) (RRT 1.38) ([1]; 8 hr): 0.01% | H-unk (Highest Unknown Impurity) ([1]; 8 hr): 0.01% | Monohydroxy Bendamustine (RRT 0.47) ([1]; 8 hr): 1.59% | Total Related Substances ([1]; 8 hr): 1.77% | Bendamustine Dimer (RRT 1.23) ([1]; 24 hr): 0.19% | Bendamustine Ethyl Ester (BD 5) (RRT 1.38) ([1]; 24 hr): 0.01% | H-unk (Highest Unknown Impurity) ([1]; 24 hr): 0.01% | Monohydroxy Bendamustine (RRT 0.47) ([1]; 24 hr): 4.13% | Total Related Substances ([1]; 24 hr): 4.37% | Bendamustine Dimer (RRT 1.23) ([1]; Initial): 0.04% | Bendamustine Ethyl Ester (BD 5) (RRT 1.38) ([1]; Initial): 0.00% | H-unk (Highest Unknown Impurity) ([1]; Initial): 0.01% | Monohydroxy Bendamustine (RRT 0.47) ([1]; Initial): 0.12% | Total Related Substances ([1]; Initial): 0.20% | Bendamustine Dimer (RRT 1.23) ([2]; 1 hr): 0.05% | Bendamustine Ethyl Ester (BD 5) (RRT 1.38) ([2]; 1 hr): 0.003% | H-unk (Highest Unknown Impurity) ([2]; 1 hr): 0.03% | Monohydroxy Bendamustine (RRT 0.47) ([2]; 1 hr): 0.02% | Total Related Substances ([2]; 1 hr): 0.17% | Bendamustine Dimer (RRT 1.23) ([2]; 2 hr): 0.05% | Bendamustine Ethyl Ester (BD 5) (RRT 1.38) ([2]; 2 hr): 0.003% | H-unk (Highest Unknown Impurity) ([2]; 2 hr): 0.03% | Monohydroxy Bendamustine (RRT 0.47) ([2]; 2 hr): 0.03% | Total Related Substances ([2]; 2 hr): 0.18% | Bendamustine Dimer (RRT 1.23) ([2]; 3 hr): 0.05% | Bendamustine Ethyl Ester (BD 5) (RRT 1.38) ([2]; 3 hr): 0.003% | H-unk (Highest Unknown Impurity) ([2]; 3 hr): 0.03% | Monohydroxy Bendamustine (RRT 0.47) ([2]; 3 hr): 0.04% | Total Related Substances ([2]; 3 hr): 0.19% | Bendamustine Dimer (RRT 1.23) ([2]; 6 hr): 0.06% | Bendamustine Ethyl Ester (BD 5) (RRT 1.38) ([2]; 6 hr): 0.003% | H-unk (Highest Unknown Impurity) ([2]; 6 hr): 0.03% | Monohydroxy Bendamustine (RRT 0.47) ([2]; 6 hr): 0.07% | Total Related Substances ([2]; 6 hr): 0.23% | Bendamustine Dimer (RRT 1.23) ([2]; 8 hr): 0.06% | Bendamustine Ethyl Ester (BD 5) (RRT 1.38) ([2]; 8 hr): 0.003% | H-unk (Highest Unknown Impurity) ([2]; 8 hr): 0.03% | Monohydroxy Bendamustine (RRT 0.47) ([2]; 8 hr): 0.09% | Total Related Substances ([2]; 8 hr): 0.25% | Bendamustine Dimer (RRT 1.23) ([2]; Initial): 0.05% | Bendamustine Ethyl Ester (BD 5) (RRT 1.38) ([2]; Initial): 0.003% | H-unk (Highest Unknown Impurity) ([2]; Initial): 0.03% | Monohydroxy Bendamustine (RRT 0.47) ([2]; Initial): 0.01% | Total Related Substances ([2]; Initial): 0.15%
